Reference: patent publication US8906868B2, “Aminoglycoside derivatives” (Rempex Pharmaceuticals, Inc., priority 2010, dated 2014)
≈ marks a conversion by molar mass, not a printed value. Like-named read-outs stand apart in the source and are kept apart here.

Experiments:
[1] = test system: EC1001 acc(6′)-Ib; assay: microbe, parasite or virus in culture; type: cell-based, Escherichia coli; details: Table 4; for MIC: Escherichia coli, read-out: Compound MIC on Bacterial Strains: Escherichia coli EC1001 acc(6′)-Ib
Experimental: (§1) To compare microbiological activity of the test compounds, minimum inhibitory concentrations (MIC.s) were determined. Antibiotic MICs were obtained using the broth microdilution method according to Clinical and Laboratory Standards Institute (CLSI) approved guidelines (Methods for dilution antimicrobial susceptibility tests for bacteria that grow aerobically; approved standard—7th ed. CLSI document M7-A7. Clinical and Laboratory Standards Institute, Wayne, Pa., incorporated herein by reference in its entirety). Antibiotics were dissolved as specified by CLSI (Performance standards for antimicrobial susceptibility testing; Seventeenth informational supplement. CLSI document M100-S17. Clinical and Laboratory Standards Institute, Wayne, Pa., incorporated herein by reference in its entirety), and were serially diluted 2-fold in cation adjusted Mueller Hinton Broth (CaMHB) at 2× concentration. Bacterial inoculums were prepared in CaMHB by suspension of a colony from an agar plate that was prepared the previous day to obtain a final concentration of 5×10^5CFU/ml. The plates were incubated for 18 hours at 35° C. […] MIC.s were determined by reading the turbidity of plate wells using a SpectraMax Plus384 plate reader (Molecular Devices, Sunnyvale, Calif., USA) at 600 nm and were confirmed by visual inspection.

[2] = test system: ECM6007 aac(6′) + aph(2″); assay: microbe, parasite or virus in culture; type: cell-based, Escherichia coli; details: Table 4; for MIC: Escherichia coli, 18 h, read-out: Compound MIC on Bacterial Strains: Escherichia coli ECM6007 aac(6′) + aph(2″)
Experimental: as §1

[3] = test system: ACM1005 ATCC 19004; assay: MIC, broth microdilution; type: cell-based, Acinetobacter baumannii; details: Table 4; for MIC: Acinetobacter baumannii, ATCC19004, read-out: Compound MIC on Bacterial Strains: Acinetobacter baumannii ACM1005 ATCC 19004
Experimental: as §1

[4] = test system: ACM1006 acc(6′)-Ib; assay: microbe, parasite or virus in culture; type: cell-based, Acinetobacter baumannii; details: Table 4; for MIC: Acinetobacter baumannii, read-out: Compound MIC on Bacterial Strains: Acinetobacter baumannii ACM1006 acc(6′)-Ib
Experimental: as §1

[5] = test system: Escherichia coli (ATCC 25922); assay: MIC, broth microdilution; details: for MIC: Escherichia coli
[6] = test system: Staphylococcus aureus (ATCC 29213); assay: MIC, broth microdilution; details: Staphylococcus aureus
[7] = test system: Klebsiella pneumonia (ATCC 43816); assay: MIC, broth microdilution; details: Klebsiella pneumoniae, ATCC43816, read-out: Compound MIC on Bacterial Strains: K. pneumonia ATCC 43816
[8] = test system: Pseudomonas aeruginosa (ATCC 27853); assay: MIC, broth microdilution; details: Pseudomonas aeruginosa
[9] = test system: Acinetobacter baumannii (ATCC 19606); assay: MIC, broth microdilution; details: Acinetobacter baumannii, ATCC19606, read-out: Compound MIC on Bacterial Strains: A. baumannii ATCC 19606
[10] = test system: ECM6006 aph(3′)-III; assay: microbe, parasite or virus in culture; type: cell-based, Escherichia coli; details: for MIC: Escherichia coli, read-out: Compound MIC on Bacterial Strains: ECM6006 aph(3′)-III
Experimental: as §1
(§2) Activity of the test compounds was determined using QC strains and strains with known aminoglycoside resistance mechanisms (TABLE 3). This specific panel contained strains expressing enzymes that covalently modify N2″, N3 and N3′ positions.

[11] = test system: ECM6009 aac(3)-II; assay: microbe, parasite or virus in culture; type: cell-based, Escherichia coli; details: for MIC: Escherichia coli, read-out: Compound MIC on Bacterial Strains: ECM6009 aac(3)-II
Experimental: as §1, §2

[12] = test system: ECM6010 ant(2″)-I; assay: microbe, parasite or virus in culture; type: cell-based, Escherichia coli; details: for MIC: Escherichia coli, read-out: Compound MIC on Bacterial Strains: ECM6010 ant(2″)-I
Experimental: as §1, §2

[13] = test system: ECM6011 aph(3′)-I; assay: microbe, parasite or virus in culture; type: cell-based, Escherichia coli; details: for MIC: Escherichia coli, read-out: Compound MIC on Bacterial Strains: ECM6011 aph(3′)-I
Experimental: as §1, §2

[14] = test system: ECM6003 rmtB; assay: microbe, parasite or virus in culture; type: cell-based, Escherichia coli; details: for MIC: Escherichia coli, read-out: Compound MIC on Bacterial Strains: ECM6003 rmtB
Experimental: as §1, §2
The panel also contained a strain expressing ribosomal RNA methylase, RmtB.

[15] = test system: EC1002 aph(3′)-IV; assay: organism not typed; type: cell-based; details: for MIC: read-out: Compound MIC on Bacterial Strains: EC1002 aph(3′)-IV
Experimental: as §1, §2

[16] = test system: PAM3072 aac(6′)-II; assay: microbe, parasite or virus in culture; type: cell-based, Pseudomonas aeruginosa; details: Pseudomonas aeruginosa, Table 5; read-out: Compound MIC on Bacterial Strains: Pseudomonas aeruginosa PAM3072 aac(6′)-II
Experimental: as §1

[17] = test system: PAM3073 aac(6′)-I; assay: microbe, parasite or virus in culture; type: cell-based, Pseudomonas aeruginosa; details: Pseudomonas aeruginosa, Table 5; read-out: Compound MIC on Bacterial Strains: Pseudomonas aeruginosa PAM3073 aac(6′)-I
Experimental: as §1

[18] = ATCC25922, read-out: Compound MIC on Bacterial Strains: E. coli ATCC 25922
[19] = ATCC25922, read-out: Compound MIC on Bacterial Strains: Escherichia coli ECM6000 ATCC 25922
[20] = ATCC29213, read-out: Compound MIC on Bacterial Strains: S. aureus ATCC 29213, QC strain, Table 2
[21] = ATCC27853, read-out: Compound MIC on Bacterial Strains: P. aeruginosa ATCC 27853
[22] = ATCC25922, read-out: Compound MIC on Bacterial Strains: ECM6000 ATCC 25922
[23] = ATCC29213, read-out: Compound MIC on Bacterial Strains: Staphylococcus aureus SAM1000 ATCC 29213, Table 5
[24] = ATCC27853, read-out: Compound MIC on Bacterial Strains: Pseudomonas aeruginosa PAM3034 ATCC 27853

SMILES	MIC [1] [µg/mL]	MIC [2] [µg/mL]	MIC [3] [µg/mL]	MIC [5, 18] [µg/mL]	MIC [5, 19] [µg/mL]	MIC [6, 20] [µg/mL]	MIC [7] [µg/mL]	MIC [8, 21] [µg/mL]	MIC [9] [µg/mL]	MIC [10] [µg/mL]	MIC [11] [µg/mL]	MIC [12] [µg/mL]	MIC [13] [µg/mL]	MIC ([14]; Table 3) [µg/mL]	MIC [15] [µg/mL]	MIC [16] [µg/mL]	MIC [17] [µg/mL]	MIC [5, 22] [µg/mL]	MIC [6, 23] [µg/mL]	MIC [8, 24] [µg/mL]	also measured
CN[C@@H]1[C@@H](O)[C@@H](O[C@@H]2[C@@H](O)[C@H](O[C@H]3O[C@H](CN)CC[C@H]3N)[C@@H](N)C[C@H]2NC(=O)[C@@H](O)[C@H](N)CN)OC[C@]1(C)O [Compound 3, (2S,3R)-3,4-diamino-N-((1R,2S,3S,4R,5S)-5-amino-4-((2R,3R,6S)-3-amino-6-(aminomethyl)tetrahydro-2H-pyran-2-yloxy)-2-((2R,3R,4R,5R)-3,5-dihydroxy-5-methyl-4-(methylamino)tetrahydro-2H-pyran-2-yloxy)-3-hydroxycyclohexyl)-2-hydroxybutanamide]	> 8	< 1	1 to 8 (≈ 1.77 to 14.1 µM)	< 1	1 to 8 (≈ 1.77 to 14.1 µM)	< 1	< 1	< 1	> 8												MIC [4]: 1 to 8 µg/mL (≈ 1.77 to 14.1 µM)
CN[C@@H]1[C@@H](O)[C@@H](O[C@@H]2[C@@H](O)[C@H](O[C@H]3O[C@H](CNCC(O)CO)CC[C@H]3N)[C@@H](N)C[C@H]2NC(=O)[C@@H](O)CCN)OC[C@]1(C)O (stereo partly drawn) [Compound 8, (2S)-4-amino-N-((1R,2S,3S,4R,5S)-5-amino-4-((2R,3R,6S)-3-amino-6-((2,3-dihydroxypropylamino)methyl)tetrahydro-2H-pyran-2-yloxy)-2-((2R,3R,4R,5R)-3,5-dihydroxy-5-methyl-4-(methylamino)tetrahydro-2H-pyran-2-yloxy)-3-hydroxycyclohexyl)-2-hydroxybutanamide]	< 1	< 1	1 to 8 (≈ 1.6 to 12.8 µM)	< 1	< 1	< 1	< 1	1 to 8 (≈ 1.6 to 12.8 µM)	> 8	1 to 8 (≈ 1.6 to 12.8 µM)	< 1	< 1	< 1	> 8	< 1	> 8	1 to 8 (≈ 1.6 to 12.8 µM)	< 1	< 1	1 to 8 (≈ 1.6 to 12.8 µM)	MIC [4]: 1 to 8 µg/mL (≈ 1.6 to 12.8 µM)
CN[C@@H]1[C@@H](O)[C@@H](O[C@@H]2[C@@H](O)[C@H](O[C@H]3O[C@H](CN)CC[C@H]3N)[C@@H](N)C[C@H]2NC(=O)[C@@H](O)[C@H](N)CO)OC[C@]1(C)O [Compound 20, (2S,3R)-3-amino-N-((1R,2S,3S,4R,5S)-5-amino-4-((2R,3R,6S)-3-amino-6-(aminomethyl)tetrahydro-2H-pyran-2-yloxy)-2-((2R,3R,4R,5R)-3,5-dihydroxy-5-methyl-4-(methylamino)tetrahydro-2H-pyran-2-yloxy)-3-hydroxycyclohexyl)-2,4-dihydroxybutanamide]				1 to 8 (≈ 1.76 to 14.1 µM)		1 to 8 (≈ 1.76 to 14.1 µM)	< 1	1 to 8 (≈ 1.76 to 14.1 µM)	> 8	1 to 8 (≈ 1.76 to 14.1 µM)	< 1	1 to 8 (≈ 1.76 to 14.1 µM)	1 to 8 (≈ 1.76 to 14.1 µM)	> 8	1 to 8 (≈ 1.76 to 14.1 µM)	> 8	> 8	1 to 8 (≈ 1.76 to 14.1 µM)	1 to 8 (≈ 1.76 to 14.1 µM)	1 to 8 (≈ 1.76 to 14.1 µM)	
NC[C@@H]1CCC(N)[C@@H](OC2C(O)C(O[C@H]3OC(CO)C(O)[C@H](N)C3O)[C@H](NC(=O)C3(O)CNNC3)C[C@@H]2N)O1 (stereo partly shown) [Compound 28]																					fold increased resistance conferred by RmtB ([14]; strain expressing ribosomal RNA methylase RmtB): 8 fold
CN[C@@H]1[C@@H](O)[C@@H](O[C@@H]2[C@@H](O)[C@H](O[C@H]3O[C@H](CNCCO)CC[C@H]3N)[C@@H](N)C[C@H]2NC(=O)[C@@H](O)CNN)OC[C@]1(C)O [Compound 41, (S)—N-((1R,2S,3S,4R,5S)-5-amino-4-((2R,3R,6S)-3-amino-6-((2-hydroxyethylamino)methyl)tetrahydro-2H-pyran-2-yloxy)-2-((2R,3R,4R,5R)-3,5-dihydroxy-5-methyl-4-(methylamino)tetrahydro-2H-pyran-2-yloxy)-3-hydroxycyclohexyl)-3-hydrazinyl-2-hydroxypropanamide]	> 8	1 to 8		1 to 8 (≈ 1.68 to 13.4 µM)	1 to 8 (≈ 1.68 to 13.4 µM)	1 to 8 (≈ 1.68 to 13.4 µM)	1 to 8 (≈ 1.68 to 13.4 µM)	> 8	> 8	> 8	> 8	1 to 8 (≈ 1.68 to 13.4 µM)	1 to 8 (≈ 1.68 to 13.4 µM)	> 8	1 to 8 (≈ 1.68 to 13.4 µM)	> 8	> 8	1 to 8 (≈ 1.68 to 13.4 µM)	1 to 8 (≈ 1.68 to 13.4 µM)	> 8	
CNC[C@@H]1CC[C@@H](N)[C@@H](O[C@H]2[C@H](O)[C@@H](O[C@H]3OC[C@](C)(O)[C@H](NC)[C@H]3O)[C@H](N)C[C@@H]2N)O1 [Micronomicin, reference compound]																					Compound MIC on Bacterial Strains: ECM6006 aph(3′)-III [10]: B (key: A: MIC of 1 μg/ml or less; B: MIC of greater than 1 μg/ml to 8 μg/ml; MIC of greater than 8 μg/ml); Compound MIC on Bacterial Strains: ECM6009 aac(3)-II [11]: C (key: A: MIC of 1 μg/ml or less; B: MIC of greater than 1 μg/ml to 8 μg/ml; MIC of greater than 8 μg/ml); Compound MIC on Bacterial Strains: ECM6010 ant(2″)-I [12]: C (key: A: MIC of 1 μg/ml or less; B: MIC of greater than 1 μg/ml to 8 μg/ml; MIC of greater than 8 μg/ml); Compound MIC on Bacterial Strains: ECM6011 aph(3′)-I [13]: B (key: A: MIC of 1 μg/ml or less; B: MIC of greater than 1 μg/ml to 8 μg/ml; MIC of greater than 8 μg/ml); Compound MIC on Bacterial Strains: ECM6003 rmtB ([14]; Table 3): C (MIC of greater than 8 μg/ml); Compound MIC on Bacterial Strains: EC1002 aph(3′)-IV [15]: A (key: A: MIC of 1 μg/ml or less; B: MIC of greater than 1 μg/ml to 8 μg/ml; MIC of greater than 8 μg/ml); Compound MIC on Bacterial Strains: Escherichia coli EC1001 acc(6′)-Ib [1]: C (MIC of greater than 8 μg/ml); Compound MIC on Bacterial Strains: Escherichia coli ECM6007 aac(6′) + aph(2″) [2]: B (MIC of greater than 1 μg/ml to 8 μg/ml); Compound MIC on Bacterial Strains: Acinetobacter baumannii ACM1005 ATCC 19004 [3]: A (MIC of 1 μg/ml or less); Compound MIC on Bacterial Strains: Acinetobacter baumannii ACM1006 acc(6′)-Ib [4]: C (MIC of greater than 8 μg/ml); Compound MIC on Bacterial Strains: ECM6000 ATCC 25922 ([5]; Table 3): A (MIC of 1 μg/ml or less); Compound MIC on Bacterial Strains: Escherichia coli ECM6000 ATCC 25922 ([5]; Table 4): A (MIC of 1 μg/ml or less)
